Measured values taken from patent US8044079B2, “Substituted oxindole derivatives, medicaments containing said derivatives and use thereof” (Abbott GmbH & Co. KG, priority 2005, dated 2011).
pKi: −log10 of the molar value.

What follows are compounds tested against T1, human vasopressin V1b receptor (Homo sapiens, UniProt P47901) (assay: Vasopressin V1b receptor binding test). Details: membranes of CHO-K1 cells with human V1b receptor, displacement of 1.5 nM 3H-AVP; for compounds with more than one stereogenic center the diastereomer with greater affinity.
T1 construct: expressed in transfected cells; host or cells: CHO-K1 (cell line hV1b_3H2_CHO), membrane preparation
T1 sequence (P47901 1-424): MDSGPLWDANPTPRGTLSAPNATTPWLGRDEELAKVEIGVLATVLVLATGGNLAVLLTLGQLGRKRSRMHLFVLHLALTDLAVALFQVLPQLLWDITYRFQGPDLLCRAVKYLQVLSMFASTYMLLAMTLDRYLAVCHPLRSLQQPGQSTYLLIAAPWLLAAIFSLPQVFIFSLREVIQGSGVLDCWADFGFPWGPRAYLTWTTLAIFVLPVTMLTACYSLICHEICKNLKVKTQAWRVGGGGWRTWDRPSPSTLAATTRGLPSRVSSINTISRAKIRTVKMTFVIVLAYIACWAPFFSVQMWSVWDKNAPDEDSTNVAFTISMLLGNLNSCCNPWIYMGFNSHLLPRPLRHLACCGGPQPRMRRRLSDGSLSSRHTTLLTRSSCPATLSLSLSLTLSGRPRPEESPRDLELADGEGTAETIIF
Experimental: Vasopressin V1b Receptor Binding Test:
The test substances were dissolved at a concentration of 10^−2 M in DMSO, and were further diluted to 5×10^−4 M to 5×10^−9 M in DMSO. This DMSO predilution series was diluted 1:10 with test buffer. In the test assay the substance concentration was further diluted to 1:5 (2% DMSO in the assay).
The membrane pellet was homogenized again as described and centrifuged, and was then taken up in 50 mM tris-HCl at pH 7.4, homogenized, and frozen in aliquots at −190° C. and stored in liquid nitrogen.
The incubation buffer was 50 mM tris, 10 mM MgCl2, and 0.1% BSA at pH 7.4. […] The nonspecific binding was determined using 1 μM AVP (Bachem #H1780). All determinations were performed in triplicate. After incubation (60 minutes at room temperature), the free radioligand was filtered off by vacuum filtration (Skatron 7000 cell harvester) through Wathman GF/B fiberglass filter mats, and the filters were transferred to scintillation vessels. The liquid scintillation measurement was conducted in a Model 2000 or 2200CA TriCarb unit (Packard). The measured cpm was converted to dpm using a standard quench series.
The binding parameters were calculated by nonlinear regression in SAS.
The affinities of the compounds according to the invention for human vasopressin receptor V1b were measured according to the above test, and the affinity constants (Ki) were determined.
A pKi of 7.00 to 8.00 was found for `COCCN(C)Cc1ccc(C2(N3CCC[C@H]3c3ncco3)C(=O)N(S(=O)(=O)c3ccc(OC)cc3)c3ccc(Cl)cc32)c(OC)c1` (stereo partly drawn) [Example 22, 5-Chloro-1-(4-methoxybenzenesulfonyl)-3-(2-methoxy-4-{[(2-methoxyethyl)methylamino]methyl}phenyl)-3-((S)-2-oxazol-2-yl-pyrrolidin-1-yl)-1,3-dihydroindol-2-one] in this work. A pKi of over 8.00 was found for `COc1ccc(S(=O)(=O)N2C(=O)C(c3ccc(CN4CCN(C)CC4)cc3OC)(N3CCC[C@H]3c3ncco3)c3cc(Cl)ccc32)cc1` (stereo partly drawn) [Example 23, 5-Chloro-1-(4-methoxybenzenesulfonyl)-3-[2-methoxy-4-(4-methylpiperazin-1-ylmethyl)phenyl]-3-((S)-2-oxazol-2-yl-pyrrolidin-1-yl)-1,3-dihydroindol-2-one] in this work. A pKi of over 8.00 was found for `COc1ccc(S(=O)(=O)N2C(=O)C(c3ccc(CN4CCNCC4)cc3OC)(N3CCC[C@H]3c3ncco3)c3cc(Cl)ccc32)cc1` (stereo partly drawn) [Example 24, 5-Chloro-1-(4-methoxybenzenesulfonyl)-3-(2-methoxy-4-piperazin-1-ylmethylphenyl)-3-((S)-2-oxazol-2-yl-pyrrolidin-1-yl)-1,3-dihydroindol-2-one] in this work. A pKi of over 8.00 was found for `COc1ccc(S(=O)(=O)N2C(=O)C(c3ccc(CN4CCCC4)cc3OC)(N3CCC[C@H]3c3ncco3)c3cc(Cl)ccc32)cc1` (stereo partly drawn) [Example 25, 5-Chloro-1-(4-methoxybenzenesulfonyl)-3-(2-methoxy-4-pyrrolidin-1-ylmethylphenyl)-3-((S)-2-oxazol-2-yl-pyrrolidin-1-yl)-1,3-dihydroindol-2-one] in this work. A pKi of over 8.00 was found for `COc1ccc(S(=O)(=O)N2C(=O)C(c3ccc(CN4CCCCC4)cc3OC)(N3CCC[C@H]3c3ncco3)c3cc(Cl)ccc32)cc1` (stereo partly drawn) [Example 26, 5-Chloro-1-(4-methoxybenzenesulfonyl)-3-(2-methoxy-4-piperidin-1-ylmethylphenyl)-3-((S)-2-oxazol-2-yl-pyrrolidin-1-yl)-1,3-dihydroindol-2-one] in this work. A pKi of 6.00 to 7.00 was found for `COc1ccc(S(=O)(=O)N2C(=O)C(c3cc(CN(C)C)ccc3OC)(N3CCC[C@H]3c3ncco3)c3ccc(Cl)cc32)cc1` (stereo partly drawn) [Example 28, 6-Chloro-3-(5-dimethylaminomethyl-2-methoxyphenyl)-1-(4-methoxybenzenesulfonyl)-3-((S)-2-oxazol-2-yl-pyrrolidin-1-yl)-1,3-dihydroindol-2-one] in this work. A pKi of 6.00 to 7.00 was found for `CCN(C)Cc1ccc(OC)c(C2(N3CCC[C@H]3c3ncco3)C(=O)N(S(=O)(=O)c3ccc(OC)cc3)c3cc(Cl)ccc32)c1` (stereo partly drawn) [Example 30, 6-Chloro-3-{5-[(ethylmethylamino)methyl]-2-methoxyphenyl}-1-(4-methoxybenzenesulfonyl)-3-((S)-2-oxazol-2-yl-pyrrolidin-1-yl)-1,3-dihydroindol-2-one] in this work. A pKi of 6.00 to 7.00 was found for `CCN(CC)Cc1ccc(OC)c(C2(N3CCC[C@H]3c3ncco3)C(=O)N(S(=O)(=O)c3ccc(OC)cc3)c3cc(Cl)ccc32)c1` (stereo partly drawn) [Example 31, 6-Chloro-3-(5-diethylaminomethyl-2-methoxyphenyl)-1-(4-methoxybenzenesulfonyl)-3-((S)-2-oxazol-2-yl-pyrrolidin-1-yl)-1,3-dihydroindol-2-one] in this work. A pKi of 6.00 to 7.00 was found for `CCCNCc1ccc(OC)c(C2(N3CCC[C@H]3c3ncco3)C(=O)N(S(=O)(=O)c3ccc(OC)cc3)c3cc(Cl)ccc32)c1` (stereo partly drawn) [Example 32, 6-Chloro-1-(4-methoxybenzenesulfonyl)-3-(2-methoxy-5-propylaminomethylphenyl)-3-((S)-2-oxazol-2-yl-pyrrolidin-1-yl)-1,3-dihydroindol-2-one] in this work. A pKi of 6.00 to 7.00 was found for `COc1ccc(S(=O)(=O)N2C(=O)C(c3cc(CN(C)C(C)C)ccc3OC)(N3CCC[C@H]3c3ncco3)c3ccc(Cl)cc32)cc1` (stereo partly drawn) [Example 33, 6-Chloro-3-{5-[(isopropylmethylamino)methyl]-2-methoxyphenyl}-1-(4-methoxybenzenesulfonyl)-3-((S)-2-oxazol-2-yl-pyrrolidin-1-yl)-1,3-dihydroindol-2-one] in this work.
